Source: the supplement of paper PMC4862054

How the values were obtained:
Conditions in all cases: incubation time: 72 h
[1] = test system: BT-474; assay: normalised response (% of control), CellTox Green; higher = less cell death (100 = DMSO, 0 = benzethonium chloride kill control)
Outline: (§1)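 Compound was dispensed into 384-well plates at 5 concentrations in 10-fold steps spanning a 10,000-fold range specific to that compound. Breast cancer cell lines were added as 20 µl suspension and left for 72 h before CellTox Green fluorescence (485/520 nm) and then CellTiter-Glo luminescence, read after 10 min at room temperature. Each reported value is the normalised signal at one concentration, with 0.1 % DMSO set at 100 and a positive kill control at 0 on each plate.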

[2] = test system: BT-549; assay: as above
Outline: as §1

[3] = test system: CAL-120; assay: as above
Outline: as §1

[4] = test system: CAL-148; assay: as above
Outline: as §1

[5] = test system: CAL-51; assay: as above
Outline: as §1

[6] = test system: CAL-85-1; assay: as above
Outline: as §1

[7] = test system: DU-4475; assay: as above
Outline: as §1

[8] = test system: HCC1143; assay: as above
Outline: as §1

[9] = test system: HCC1599; assay: as above
Outline: as §1

[10] = test system: HCC1937; assay: as above
Outline: as §1

[11] = test system: HDQ-P1; assay: as above
Outline: as §1

[12] = test system: MCF-10A; assay: as above
Outline: as §1

[13] = test system: MDA-MB-231; assay: as above
Outline: as §1

[14] = test system: MDA-MB-436; assay: as above
Outline: as §1

[15] = test system: MDA-MB-453; assay: as above
Outline: as §1

[16] = test system: MDA-MB-468; assay: as above
Outline: as §1

[17] = test system: MFM-223; assay: as above
Outline: as §1

[18] = test system: BT-474; assay: normalised response (% of control), CellTiter-Glo; higher = more viable cells (100 = DMSO, 0 = benzethonium chloride kill control)
Description: (§2)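 DSRT, 72 h incubation, CellTox Green / CellTiter-Glo readout. Signal is normalised to DMSO and benzethonium chloride controls. Value is the normalised response at dose 3.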

[19] = test system: BT-549; assay: as above
Description: as §2

[20] = test system: CAL-120; assay: as above
Description: as §2

[21] = test system: CAL-148; assay: as above
Description: as §2

[22] = test system: CAL-51; assay: as above
Description: as §2

[23] = test system: CAL-85-1; assay: as above
Description: as §2

[24] = test system: DU-4475; assay: as above
Description: as §2

[25] = test system: HCC1143; assay: as above
Description: as §2

[26] = test system: HCC1599; assay: as above
Description: as §2

[27] = test system: HCC1937; assay: as above
Description: as §2

[28] = test system: HDQ-P1; assay: as above
Description: as §2

[29] = test system: Hs578T; assay: as above
Description: as §2

[30] = test system: MCF-10A; assay: as above
Description: as §2

[31] = test system: MDA-MB-231; assay: as above
Description: as §2

[32] = test system: MDA-MB-436; assay: as above
Description: as §2

[33] = test system: MDA-MB-453; assay: as above
Description: as §2

[34] = test system: MDA-MB-468; assay: as above
Description: as §2

[35] = test system: MFM-223; assay: as above
Description: as §2

[36] = test system: SK-BR-3; assay: as above
Description: as §2

[37] = test system: Hs578T; assay: normalised response (% of control), CellTox Green; higher = less cell death (100 = DMSO, 0 = benzethonium chloride kill control)
Outline: as §1

SMILES | normalised response [1] [%] | normalised response [2] [%] | normalised response [3] [%] | normalised response [4] [%] | normalised response [5] [%] | normalised response [6] [%] | normalised response [7] [%] | normalised response [8] [%] | normalised response [9] [%] | normalised response [10] [%] | normalised response [11] [%] | normalised response [12] [%] | normalised response [13] [%] | normalised response [14] [%] | normalised response [15] [%] | normalised response [16] [%] | normalised response [17] [%] | normalised response [18] [%] | normalised response [19] [%] | normalised response [20] [%] | normalised response [21] [%] | normalised response [22] [%] | normalised response [23] [%] | normalised response [24] [%] | normalised response [25] [%] | normalised response [26] [%] | normalised response [27] [%] | normalised response [28] [%] | normalised response [29] [%] | normalised response [30] [%] | normalised response [31] [%] | normalised response [32] [%] | normalised response [33] [%] | normalised response [34] [%] | normalised response [35] [%] | normalised response [36] [%] | normalised response [37] [%]
CCn1c(C(=O)N(C2CC2)C2CC2)cc2c3c(ncn3C)c(Nc3cc(C)n(C)n3)nc21 (100 nM) | 101 | 106 | 90.4 | 103 | 101 | 108 | 101 | 98.8 | 96 | 57.1 | 102 | 77.7 | 106 | 93.9 | 99.3 | 83.1 | 94.8 | 100 | 110 | 95.7 | 103 | 87.7 | 100 | 99.2 | 101 | 93 | 97.4 | 98.3 | 110 | 106 | 99.7 | 106 | 93.2 | 97 | 99.8 | 105 | –
COc1ccc(S(=O)(=O)Nc2cccnc2Nc2ccc(O)cc2)cc1 [ABT-751] (100 nM) | 92.9 | 95.4 | 94.7 | 104 | 98.6 | 92.2 | 97.4 | 69.5 | 101 | 110 | 101 | 57 | 102 | 83.8 | 98 | 81.9 | – | 99.2 | 100 | 95.2 | 96.6 | 88.9 | 96.9 | 99.6 | 99.3 | 109 | 92.5 | 96 | 107 | 96.6 | 101 | 98.5 | 84.2 | 97 | 101 | 93 | –
CCNC(=O)CCC/C=C\C[C@@H]1[C@@H](/C=C/[C@@H](O)CCc2ccccc2)[C@H](O)C[C@@H]1O [Bimatoprost] (55 nM) | 98.7 | 94.8 | 98.3 | 95 | 103 | 83.9 | 96.9 | 110 | 97.2 | 76.7 | 64.3 | 89.2 | 99.8 | – | 97.6 | – | 101 | 97.2 | 98.3 | 99.7 | 95.8 | 90.4 | 92.4 | 94.7 | 99.7 | 99.4 | 97.1 | 94.2 | 94.9 | 90.1 | 100 | 100 | 99.1 | 94 | 104 | 91.7 | 103
COc1cc(Nc2c(C#N)cnc3cc(OCCCN4CCN(C)CC4)c(OC)cc23)c(Cl)cc1Cl [Bosutinib] (100 nM) | 101 | 97.1 | 99.3 | 105 | 101 | 117 | 109 | 76.2 | 101 | 54.8 | 101 | 103 | 104 | 104 | 100 | 148 | 101 | 104 | 103 | 100 | 104 | 100 | 98.3 | 97.5 | 101 | 93.1 | 95.5 | 85.9 | 99 | 77.4 | 100 | 103 | 103 | 95.4 | 99.3 | 109 | –
